What was measured:
[1] = Antiproliferative activity against human A549 cells after 72 hrs by MTT assay; assay type: functional, cell-based; settings: A549, 72 h
[2] = Antiproliferative activity against human U87MG cells after 72 hrs by MTT assay; assay type: functional, cell-based, U-87MG ATCC; settings: U-87 MG

Compound `CCOC(=O)c1nc2ccccc2nc1C#Cc1ccccc1` has an IC50 [1] of 3.3 µM and an IC50 [2] of 3.3 µM.

`O=c1c2nc3ccccc3nc2cc(-c2ccccc2)n1-c1ccccc1` showed an IC50 [1] of 46.4 µM and an IC50 [2] of 21.3 µM.

With `Cc1ccc(-c2cc3nc4ccccc4nc3c(=O)n2-c2ccccc2)cc1` the IC50 [1] was 39.6 µM and the IC50 [2] was 23.7 µM.

For `CCOC(=O)c1nc2ccccc2nc1C#Cc1ccccc1OC`, the IC50 [1] was 7.9 µM and the IC50 [2] was 11.6 µM.

In the case of `CCOC(=O)c1nc2ccccc2nc1C#CC1CC1`, the IC50 [1] is reported as 7.6 µM and the IC50 [2] is reported as 6.2 µM.

For `CCOC(=O)c1nc2ccccc2nc1C#Cc1ccccc1C`, the IC50 [1] was 27 µM and the IC50 [2] was 31.6 µM.

In the case of `CCOC(=O)c1nc2ccccc2nc1C#Cc1cccc(F)c1`, the IC50 [1] is reported as 3 µM and the IC50 [2] is reported as 1.9 µM.

Compound `CCOC(=O)c1nc2ccccc2nc1C#Cc1ccc(C)cc1` has an IC50 [1] of 3.3 µM and an IC50 [2] of 3.3 µM.

With `CCOC(=O)c1nc2ccccc2nc1C#Cc1cccc(C)c1` the IC50 [1] was 6.5 µM and the IC50 [2] was 5.5 µM.

Work on `O=c1c2nc3ccccc3nc2cc(-c2ccccc2)n1-c1ccc(Cl)cc1` yielded an IC50 [1] of 43 µM and an IC50 [2] of 34.6 µM.

`CCOC(=O)c1nc2ccccc2nc1C#CC1CCCC1` showed an IC50 [1] of 11.2 µM and an IC50 [2] of 11.4 µM.

Reference: ChEMBL document CHEMBL3875176, “Synthesis and evaluation of in vitro antiproliferative activity of new ethyl 3-(arylethynyl)quinoxaline-2-carboxylate and pyrido[4,3-b]quinoxalin-1(2H)-one derivatives” (Eur J Med Chem, 2016)
